In ChEMBL document CHEMBL1201862, “PubChem BioAssay data set” (2004):
Activity calls are given as the source filed them.

Key:
[1] = biological target: T1, Orexin/Hypocretin receptor type 1 (Homo sapiens, UniProt O43613); assay: (§1) Fluorescence-based cell-based high throughput dose response assay for antagonists of the orexin 1 receptor (OX1R; HCRTR1). [Related pubchem assays (depositor defined):AID434989, AID435008, AID463079, AID485270, AID492963, AID492964, AID492965, AID493232, AID504717, AID504718]; type: functional
Orexin receptor type 2 [2] = biological target: T2, Orexin receptor type 2 (Homo sapiens, UniProt O43614); assay: Counterscreen assay for antagonists of the orexin 1 receptor (OX1R; HCRTR1): Homogeneous Time Resolved Fluorescence (HTRF)-based cell-based dose response assay for antagonists of the orexin 2 receptor (OX2R; HCRTR2), run by assay provider.; type: functional
T2 sequence (O43614 whole entry): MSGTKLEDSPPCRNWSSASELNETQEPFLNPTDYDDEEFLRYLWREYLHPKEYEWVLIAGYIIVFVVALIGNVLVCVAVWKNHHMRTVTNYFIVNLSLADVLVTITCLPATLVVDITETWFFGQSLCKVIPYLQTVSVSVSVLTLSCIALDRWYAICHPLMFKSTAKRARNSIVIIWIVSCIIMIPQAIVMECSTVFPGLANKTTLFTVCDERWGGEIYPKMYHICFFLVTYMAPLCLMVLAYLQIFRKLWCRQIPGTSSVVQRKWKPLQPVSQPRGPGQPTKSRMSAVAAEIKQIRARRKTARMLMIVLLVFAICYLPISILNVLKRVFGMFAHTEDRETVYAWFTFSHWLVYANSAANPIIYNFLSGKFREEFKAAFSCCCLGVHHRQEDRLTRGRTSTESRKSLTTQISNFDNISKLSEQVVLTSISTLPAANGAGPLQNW

Orexin receptor type 2 [3] = biological target: T2, Orexin receptor type 2; assay: Counterscreen assay for antagonists of the orexin 1 receptor (OX1R; HCRTR1): Fluorescence-based cell-based dose response assay for antagonists of the orexin 2 receptor (OX2R; HCRTR2), run by assay provider.; type: functional
[4] = (§2) Counterscreen for antagonists of the orexin 1 receptor (OX1R; HCRTR1): Fluorescence-based cell-based high throughput dose response assay to identify antagonists of the parental CHO cell line. [Related pubchem assays (depositor defined):AID434989, AID435008, AID463079, AID485270, AID492963, AID492964, AID492965, AID493232, AID504699, AID504701]; type: functional
CHO-K1 = assay: as §2, with “Homogeneous time resolved fluorescence (HTRF)-based” for “Fluorescence-based”, “cell-based” for “cell-based high throughput”, “CHO-K1” for “CHO”; type: functional; conditions: Cricetulus griseus;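 note: potency for inhibition of ATP-stimulated IP1 production as antagonists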
[5] = biological target: T1, Orexin/Hypocretin receptor type 1; assay: as §1, with “Homogeneous Time Resolved Fluorescence (HTRF)-based” for “Fluorescence-based”; type: functional
CAAX prenyl protease 2 = biological target: T3, CAAX prenyl protease 2 (Saccharomyces cerevisiae S288c, UniProt Q03530); type: biochemical
T3 sequence (Q03530 whole entry): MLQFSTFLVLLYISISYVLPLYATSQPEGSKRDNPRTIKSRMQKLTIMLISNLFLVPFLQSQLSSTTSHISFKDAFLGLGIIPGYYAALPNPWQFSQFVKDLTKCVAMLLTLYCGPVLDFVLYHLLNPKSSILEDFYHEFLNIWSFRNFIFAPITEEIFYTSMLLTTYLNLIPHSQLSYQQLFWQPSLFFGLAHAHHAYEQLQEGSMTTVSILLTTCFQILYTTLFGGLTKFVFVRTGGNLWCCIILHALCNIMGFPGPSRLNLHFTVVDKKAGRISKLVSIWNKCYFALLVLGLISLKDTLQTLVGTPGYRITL

[6] = toxicity toward cultured mammalian cells – cell-based, plate reader, cherry-pick samples, cytotoxicity control, dose response (AID 504397); type: functional
Mu-type opioid receptor [7] = biological target: T4, Mu-type opioid receptor (Homo sapiens, UniProt P35372); assay: mu opioid receptor activators, image-based, SAR follow-up (AID 2352); type: functional
Mu-type opioid receptor [8] = biological target: T4, Mu-type opioid receptor; assay: SAR Analysis of Antagonists of the MOR Receptor using an Image-Based Assay - Set 3. [Related pubchem assays (depositor defined):AID1777, AID1785, AID1786, AID1966, AID2133, AID2136, AID2284, AID2285, AID2420]; type: functional
Beta-galactosidase = Beta-galactosidase (Escherichia coli, UniProt Q8VNN2); type: functional
[9] = biological target: T5, Delta-type opioid receptor (Homo sapiens, UniProt P41143); assay: SAR Analysis of Antagonists of the DOR Receptor using an Image-Based Assay - Set 3. [Related pubchem assays (depositor defined):AID1777, AID1785]; type: functional
Mu-type opioid receptor [10] = biological target: T4, Mu-type opioid receptor; assay: HTS Image-Based Screen for Agonists of the MOR Receptor. [Related pubchem assays (depositor defined):AID1777, AID1785, AID1786, AID2133]; type: functional
[11] = biological target: T5, Delta-type opioid receptor; assay: delta opioid receptor blockers – image-based, SAR follow-up (AID 2357); type: functional
[12] = biological target: T5, Delta-type opioid receptor; assay: HTS Image-Based Screen for Agonists of the DOR Receptor. [Related pubchem assays (depositor defined):AID1777, AID1786, AID2133]; type: functional
Mu-type opioid receptor [13] = biological target: T4, Mu-type opioid receptor; assay: mu opioid receptor blockers – image-based, SAR follow-up (AID 2420); type: functional;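 note: compounds added before stimulation of receptor with agonist DAMGO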
[14] = biological target: T5, Delta-type opioid receptor; assay: DOR agonists, SAR follow-up, image-based (AID 2370); type: functional
[15] = biological target: T5, Delta-type opioid receptor; assay: HTS Image-Based Screen for Antagonists of the DOR Receptor. [Related pubchem assays (depositor defined):AID1777, AID1785, AID1786, AID2133]; type: functional
[16] = NIH-3T3 fibroblast cytotoxicity, dose response, cytotoxicity control, cell-based, fluorescence, Alamar Blue, secondary assay (AID 2327); type: functional;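 note: NIH-3T3 mouse fibroblasts cultured with fluconazole at 8 µg/mL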
[17] = biological target: T6, Runt-related transcription factor 1/Core-binding factor subunit beta (Homo sapiens, UniProt Q01196+Q13951); assay: Runt domain/CBFb-SMMHC interaction disruptors – biochemical, TR-FRET (AID 1438); type: protein assay
[18] = biological target: T6, Runt-related transcription factor 1/Core-binding factor subunit beta; assay: disruptors of Runt domain/CBFb-SMMHC interaction – biochemical, FRET, Cerulean-Runt, Venus-CBFb-SMMHC, uHTS, […] (AID 1434); type: protein assay
[19] = biological target: Tyrosine-protein phosphatase non-receptor type 12 (Homo sapiens, UniProt Q05209); assay: SAR Selectivity Analysis of small molecule inhibitors of PEST using pCAP in a fluorescence assay. [Related pubchem assays (depositor defined):AID1779, AID1784, AID2135]; type: functional
[20] = biological target: T7, Tyrosine-protein phosphatase non-receptor type 22 (Homo sapiens, UniProt Q9Y2R2); assay: SAR LYP1 Fluorescent Assay using pCAP substrate for In Vitro dose response studies - Set 2. [Related pubchem assays (depositor defined):AID1779, AID1784, AID2135, AID449727]; type: functional
T7 sequence (Q9Y2R2 whole entry): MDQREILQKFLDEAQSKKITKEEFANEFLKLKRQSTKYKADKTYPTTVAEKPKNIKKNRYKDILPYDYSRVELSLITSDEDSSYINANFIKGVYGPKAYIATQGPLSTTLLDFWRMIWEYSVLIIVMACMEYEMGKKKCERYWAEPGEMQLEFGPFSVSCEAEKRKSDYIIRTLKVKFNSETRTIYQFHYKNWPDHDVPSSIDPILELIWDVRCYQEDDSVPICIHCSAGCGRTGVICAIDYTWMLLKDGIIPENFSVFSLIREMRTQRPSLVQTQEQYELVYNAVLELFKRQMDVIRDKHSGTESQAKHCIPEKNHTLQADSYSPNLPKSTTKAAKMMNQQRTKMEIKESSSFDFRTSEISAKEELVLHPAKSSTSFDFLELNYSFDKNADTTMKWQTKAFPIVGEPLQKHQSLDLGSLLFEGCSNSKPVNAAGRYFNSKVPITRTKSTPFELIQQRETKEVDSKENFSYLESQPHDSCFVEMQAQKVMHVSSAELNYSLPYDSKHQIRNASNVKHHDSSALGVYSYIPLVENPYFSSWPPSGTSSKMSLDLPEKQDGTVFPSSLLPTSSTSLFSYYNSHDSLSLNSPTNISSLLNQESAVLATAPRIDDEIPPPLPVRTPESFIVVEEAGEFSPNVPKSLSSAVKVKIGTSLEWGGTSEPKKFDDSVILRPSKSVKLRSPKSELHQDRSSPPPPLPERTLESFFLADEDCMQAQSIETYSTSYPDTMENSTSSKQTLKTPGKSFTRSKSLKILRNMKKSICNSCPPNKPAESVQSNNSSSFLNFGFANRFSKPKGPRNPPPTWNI

[21] = biological target: T7, Tyrosine-protein phosphatase non-receptor type 22; assay: inhibition of lymphoid tyrosine phosphatase LYP – biochemical, pCAP fluorogenic substrate, fluorescence, set 3, SAR follow-up (AID 449727); type: functional
[22] = biological target: T7, Tyrosine-protein phosphatase non-receptor type 22; assay: SAR LYP1 Fluorescent Assay using OMFP substrate for In Vitro dose response studies - Set 2. [Related pubchem assays (depositor defined):AID1779, AID1784, AID2140, AID449726, AID488869]; type: functional
[23] = biological target: T8, Tyrosine-protein phosphatase non-receptor type 7 (Homo sapiens, UniProt P35236); assay: inhibition of hematopoietic tyrosine phosphatase HePTP – biochemical, set 2, SAR follow-up (AID 449736); type: functional
T8 sequence (P35236 whole entry): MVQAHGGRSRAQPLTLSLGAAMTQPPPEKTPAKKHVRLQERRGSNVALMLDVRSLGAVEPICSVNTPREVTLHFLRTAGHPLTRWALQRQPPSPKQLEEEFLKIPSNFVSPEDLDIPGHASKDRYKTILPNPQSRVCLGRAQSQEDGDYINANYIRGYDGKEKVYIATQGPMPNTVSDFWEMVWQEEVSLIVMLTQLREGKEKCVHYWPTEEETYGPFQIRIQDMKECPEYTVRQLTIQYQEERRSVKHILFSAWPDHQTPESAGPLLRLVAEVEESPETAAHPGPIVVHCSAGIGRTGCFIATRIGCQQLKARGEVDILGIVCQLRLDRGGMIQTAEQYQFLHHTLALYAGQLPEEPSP

[24] = biological target: T7, Tyrosine-protein phosphatase non-receptor type 22; assay: SAR LYP1 Fluorescent Assay using OMFP substrate for In Vitro dose response studies - Set 3. [Related pubchem assays (depositor defined):AID1779, AID1784, AID2140, AID2686]; type: functional

T5 sequence (P41143 whole entry): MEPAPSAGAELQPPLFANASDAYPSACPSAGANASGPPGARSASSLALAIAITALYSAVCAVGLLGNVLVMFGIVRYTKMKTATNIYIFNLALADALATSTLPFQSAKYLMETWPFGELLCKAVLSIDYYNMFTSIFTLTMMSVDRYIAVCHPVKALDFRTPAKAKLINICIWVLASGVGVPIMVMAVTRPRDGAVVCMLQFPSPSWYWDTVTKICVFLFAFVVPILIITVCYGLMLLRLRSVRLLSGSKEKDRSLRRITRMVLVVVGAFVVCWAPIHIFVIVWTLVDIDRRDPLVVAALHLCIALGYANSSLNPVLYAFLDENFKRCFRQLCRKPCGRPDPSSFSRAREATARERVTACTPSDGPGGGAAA
T4 sequence (P35372 whole entry): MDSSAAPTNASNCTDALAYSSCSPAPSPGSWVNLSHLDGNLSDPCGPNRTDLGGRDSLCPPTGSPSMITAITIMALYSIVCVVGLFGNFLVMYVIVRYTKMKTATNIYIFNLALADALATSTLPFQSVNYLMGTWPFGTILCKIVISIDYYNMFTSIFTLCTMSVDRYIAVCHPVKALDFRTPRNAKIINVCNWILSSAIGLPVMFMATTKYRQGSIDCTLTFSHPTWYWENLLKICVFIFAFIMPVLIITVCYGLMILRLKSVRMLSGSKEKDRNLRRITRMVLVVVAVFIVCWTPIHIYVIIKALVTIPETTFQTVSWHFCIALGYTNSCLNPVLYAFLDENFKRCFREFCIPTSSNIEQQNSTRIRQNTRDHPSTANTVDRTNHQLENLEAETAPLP
T1 sequence (O43613 whole entry): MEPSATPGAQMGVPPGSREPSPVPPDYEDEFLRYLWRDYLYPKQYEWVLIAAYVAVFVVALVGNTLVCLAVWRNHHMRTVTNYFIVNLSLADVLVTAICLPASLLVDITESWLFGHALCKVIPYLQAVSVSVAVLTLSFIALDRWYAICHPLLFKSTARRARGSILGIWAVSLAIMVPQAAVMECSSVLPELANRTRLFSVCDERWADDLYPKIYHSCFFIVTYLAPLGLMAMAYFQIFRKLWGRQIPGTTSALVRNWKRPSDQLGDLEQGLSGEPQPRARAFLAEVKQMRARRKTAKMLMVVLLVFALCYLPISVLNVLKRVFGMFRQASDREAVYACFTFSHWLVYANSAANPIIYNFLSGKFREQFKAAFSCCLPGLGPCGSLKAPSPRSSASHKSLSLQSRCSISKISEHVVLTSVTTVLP
T6 sequence (Q01196 whole entry, the tested form may be a part): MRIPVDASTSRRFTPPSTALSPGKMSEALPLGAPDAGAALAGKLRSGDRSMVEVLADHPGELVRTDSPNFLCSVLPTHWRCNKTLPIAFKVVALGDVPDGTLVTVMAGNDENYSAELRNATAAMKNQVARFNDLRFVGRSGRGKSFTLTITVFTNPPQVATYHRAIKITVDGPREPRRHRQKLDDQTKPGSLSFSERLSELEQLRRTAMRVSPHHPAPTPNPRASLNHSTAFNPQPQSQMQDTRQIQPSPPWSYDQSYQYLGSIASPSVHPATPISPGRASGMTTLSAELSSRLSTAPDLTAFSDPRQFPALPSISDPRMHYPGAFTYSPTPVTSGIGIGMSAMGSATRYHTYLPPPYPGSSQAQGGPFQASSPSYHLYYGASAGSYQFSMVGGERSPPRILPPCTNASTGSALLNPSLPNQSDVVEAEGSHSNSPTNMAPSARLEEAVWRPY
T6 sequence (Q13951 whole entry, the tested form may be a part): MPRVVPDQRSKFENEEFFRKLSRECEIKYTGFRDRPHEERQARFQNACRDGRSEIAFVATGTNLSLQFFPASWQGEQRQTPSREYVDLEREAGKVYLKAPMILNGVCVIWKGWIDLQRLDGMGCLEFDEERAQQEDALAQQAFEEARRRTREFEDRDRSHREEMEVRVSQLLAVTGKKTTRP
Tyrosine-protein phosphatase non-receptor type 12, sequence (Q05209 whole entry): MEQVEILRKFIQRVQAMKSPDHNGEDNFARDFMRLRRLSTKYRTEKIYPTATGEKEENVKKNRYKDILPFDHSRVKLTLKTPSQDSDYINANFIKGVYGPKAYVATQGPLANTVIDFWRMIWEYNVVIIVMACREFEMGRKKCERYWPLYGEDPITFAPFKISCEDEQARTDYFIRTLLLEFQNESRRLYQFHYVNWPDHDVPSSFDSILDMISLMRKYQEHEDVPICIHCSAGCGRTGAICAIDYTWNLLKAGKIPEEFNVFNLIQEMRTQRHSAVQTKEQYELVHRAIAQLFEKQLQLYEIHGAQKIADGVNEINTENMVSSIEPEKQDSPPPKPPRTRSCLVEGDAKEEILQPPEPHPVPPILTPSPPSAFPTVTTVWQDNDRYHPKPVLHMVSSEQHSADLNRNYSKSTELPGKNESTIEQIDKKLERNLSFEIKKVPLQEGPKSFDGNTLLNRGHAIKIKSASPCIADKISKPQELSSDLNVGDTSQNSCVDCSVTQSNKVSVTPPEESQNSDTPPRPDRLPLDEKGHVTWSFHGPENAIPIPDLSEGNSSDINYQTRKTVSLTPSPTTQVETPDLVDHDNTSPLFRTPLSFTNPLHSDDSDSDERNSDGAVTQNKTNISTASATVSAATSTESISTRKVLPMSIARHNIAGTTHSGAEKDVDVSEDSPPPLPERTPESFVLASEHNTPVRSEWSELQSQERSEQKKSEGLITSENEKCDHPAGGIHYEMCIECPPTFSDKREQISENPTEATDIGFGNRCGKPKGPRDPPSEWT
Beta-galactosidase, sequence (Q8VNN2 whole entry): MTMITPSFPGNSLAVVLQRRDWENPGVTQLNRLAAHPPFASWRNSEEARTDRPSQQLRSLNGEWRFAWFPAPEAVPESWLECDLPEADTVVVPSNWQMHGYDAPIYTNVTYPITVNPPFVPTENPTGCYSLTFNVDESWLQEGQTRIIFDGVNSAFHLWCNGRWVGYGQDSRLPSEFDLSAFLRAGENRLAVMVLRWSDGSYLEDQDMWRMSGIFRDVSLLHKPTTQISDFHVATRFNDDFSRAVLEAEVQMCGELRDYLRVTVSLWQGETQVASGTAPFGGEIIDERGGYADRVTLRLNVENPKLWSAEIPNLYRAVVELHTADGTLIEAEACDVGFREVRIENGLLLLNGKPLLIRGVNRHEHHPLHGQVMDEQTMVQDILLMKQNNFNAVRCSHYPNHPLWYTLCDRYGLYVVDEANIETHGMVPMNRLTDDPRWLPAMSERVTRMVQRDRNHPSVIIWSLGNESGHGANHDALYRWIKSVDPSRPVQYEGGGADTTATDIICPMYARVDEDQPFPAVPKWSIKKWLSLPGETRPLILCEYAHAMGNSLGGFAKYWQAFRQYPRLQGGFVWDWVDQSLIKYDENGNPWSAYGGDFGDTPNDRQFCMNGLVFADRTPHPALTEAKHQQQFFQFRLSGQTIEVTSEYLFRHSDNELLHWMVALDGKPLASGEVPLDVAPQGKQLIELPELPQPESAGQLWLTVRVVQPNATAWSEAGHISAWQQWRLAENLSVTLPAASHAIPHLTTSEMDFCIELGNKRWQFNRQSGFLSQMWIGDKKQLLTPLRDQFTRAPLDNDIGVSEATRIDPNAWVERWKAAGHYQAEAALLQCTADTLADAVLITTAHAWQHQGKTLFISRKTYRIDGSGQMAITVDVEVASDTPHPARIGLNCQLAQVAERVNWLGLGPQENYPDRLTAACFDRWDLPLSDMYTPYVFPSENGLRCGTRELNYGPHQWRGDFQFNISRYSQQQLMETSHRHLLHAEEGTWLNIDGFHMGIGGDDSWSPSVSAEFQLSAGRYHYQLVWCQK

CSc1cccc(N2CC(C(=O)NCCN3C(=O)S/C(=C\c4cccnc4)C3=O)CC2=O)c1 (configuration not stated)
IC50 [1]: 3.1 µM (active) | IC50 (Orexin receptor type 2 [2]): > 50 µM (inactive) | IC50 (Orexin receptor type 2 [3]): 20.6 µM (inactive) | IC50 [4]: > 49.8 µM (inactive) | IC50 (CHO-K1): 10.5 µM (inactive) | IC50 [5]: 0.354 µM (active)

O=C(c1cn(-c2ccccc2)nc1-c1cccs1)N1CCN(c2ccccn2)CC1
AC50 (CAAX prenyl protease 2): 3.87 µM (active) | AC50 [6]: > 350 µM (inactive)

Cc1ccc(S(=O)(=O)NCc2ccc(C(=O)NCCN(Cc3ccccc3)C(C)C)cc2)cc1
EC50 (Mu-type opioid receptor [7]): > 32 µM (inactive) | IC50 (Mu-type opioid receptor [8]): 14 µM (inactive) | EC50 (Beta-galactosidase): > 31.5 µM (inactive) | IC50 [9]: > 32 µM (inactive) | EC50 (Mu-type opioid receptor [10]): > 32 µM (inactive) | IC50 [11]: > 32 µM (inactive) | EC50 [12]: > 32 µM (inactive) | IC50 (Mu-type opioid receptor [13]): > 32 µM (inactive) | EC50 [14]: > 32 µM (inactive) | IC50 [15]: > 32 µM (inactive)

O=C(CN1CCN(c2ccc(O)cc2)CC1)NC(c1ccccc1)c1ccccc1
EC50 [16]: 28.5 µM (active) | IC50 [17]: > 100 µM (inactive) | IC50 [18]: > 100 µM (inactive)

O=C(O)COc1ccc(Nc2ccccc2)cc1
IC50 [19]: 45.1 µM (active) | IC50 [20]: > 100 µM (inactive) | IC50 [21]: > 100 µM (inactive) | IC50 [22]: > 100 µM (inactive) | IC50 [23]: 0.465 µM (active) | IC50 [24]: > 100 µM (inactive)
